# Assay results published in the supplement of paper PMC10307832.
# Assays:
# Assay in all cases: relative viability (nuclei count vs DMSO), 5 days (fraction); higher = more cells survive
# [1] = compound: CCOc1cc2ncc(C#N)c(Nc3ccc(OCc4ccccn4)c(Cl)c3)c2cc1NC(=O)/C=C/CN(C)C [Neratinib] + CC(=O)Nc1cccc(-n2c(=O)n(C3CC3)c(=O)c3c(Nc4ccc(I)cc4F)n(C)c(=O)c(C)c32)c1 [Trametinib] (partner 0.02 µM)
# Outline: (§1)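 Values are medians from duplicate plates. Each reflects relative viability, defined as the nuclei count of treated wells over that of vehicle wells. Lung cancer cell lines in 1536-well plates were pin-tool dosed one day after seeding with one drug alone or with a fixed anchor-drug dose plus five library-drug doses (not always all listed) in √10 steps, then fixed, stained and imaged at 4× after 5 days.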
# [2] = compound: CCOc1cc2ncc(C#N)c(Nc3ccc(OCc4ccccn4)c(Cl)c3)c2cc1NC(=O)/C=C/CN(C)C [Neratinib] + CC(C)C[C@H](NC(=O)[C@H](Cc1ccccc1)NC(=O)c1cnccn1)B(O)O [Bortezomib] (partner 0.002 µM)
# Outline: as §1
# [3] = compound: CCOc1cc2ncc(C#N)c(Nc3ccc(OCc4ccccn4)c(Cl)c3)c2cc1NC(=O)/C=C/CN(C)C [Neratinib] + CS(=O)(=O)N1CCN(Cc2cc3nc(-c4cccc5[nH]ncc45)nc(N4CCOCC4)c3s2)CC1 [Pictilisib] (partner 1 µM)
# Outline: as §1
# [4] = compound: CCOc1cc2ncc(C#N)c(Nc3ccc(OCc4ccccn4)c(Cl)c3)c2cc1NC(=O)/C=C/CN(C)C [Neratinib] + O=C(c1cc(Cc2n[nH]c(=O)c3ccccc23)ccc1F)N1CCN(C(=O)C2CC2)CC1 [Olaparib] (partner 8 µM)
# Outline: as §1
Cell Line,relative viability ([1]; first compound 0.01 µM),relative viability ([1]; first compound 0.1 µM),relative viability ([1]; first compound 0.3162 µM),relative viability ([1]; first compound 1 µM),relative viability ([2]; first compound 0.01 µM),relative viability ([2]; first compound 0.03162 µM),relative viability ([2]; first compound 0.1 µM),relative viability ([2]; first compound 0.3162 µM),relative viability ([2]; first compound 1 µM),relative viability ([3]; first compound 0.01 µM),relative viability ([3]; first compound 0.03162 µM),relative viability ([3]; first compound 0.1 µM),relative viability ([3]; first compound 0.3162 µM),relative viability ([3]; first compound 1 µM),relative viability ([4]; first compound 0.01 µM),relative viability ([4]; first compound 0.03162 µM),relative viability ([4]; first compound 0.1 µM),relative viability ([4]; first compound 0.3162 µM),relative viability ([4]; first compound 1 µM),relative viability ([1]; first compound 0.03162 µM)
201T,0.755,0.688,0.707,0.707,1.08,1.1,1.06,1.12,1.09,0.728,0.727,0.667,0.662,0.756,0.811,0.813,0.737,0.782,0.838,–
A549,–,–,–,–,–,–,–,–,–,0.608,0.409,0.526,0.323,0.119,0.356,0.555,0.276,0.296,0.176,–
A-427,0.835,0.807,0.637,0.337,1.08,0.996,1.02,0.952,0.918,0.952,0.738,0.773,0.675,0.62,0.826,0.883,0.56,0.71,0.553,0.85
ABC-1,–,–,–,–,0.297,0.348,0.379,0.3,0.312,0.783,0.582,0.672,0.666,0.387,0.835,0.979,0.946,0.631,0.489,–
BEN,1.02,1,0.883,0.792,0.844,1.02,0.72,0.615,0.635,0.627,0.665,0.495,0.479,0.441,1.15,1.21,0.863,0.932,0.816,1.2
CAL-12T,0.322,0.236,0.254,0.223,0.949,1.01,0.785,0.508,0.335,0.491,0.548,0.362,0.396,0.218,0.698,0.707,0.709,0.406,0.343,0.322
COR-L23,0.572,0.598,0.482,0.379,1.06,1.18,0.888,0.964,0.799,–,–,0.739,0.644,0.257,0.349,0.398,0.275,0.365,0.311,0.603
COR-L 105,0.49,0.372,0.32,0.4,0.856,0.883,0.429,0.347,0.346,0.455,0.412,0.377,0.31,0.312,0.641,–,0.506,0.414,0.419,0.441
Calu-6,–,–,–,–,1.1,–,0.993,1,0.692,0.924,1.01,0.891,0.788,0.405,0.507,0.643,0.568,0.518,0.369,–
